Patent US10975056B2 (GlaxoSmithKline Intellectual Property Development Limited, priority 2016, dated 2021)
Where “and” joins values, the source holds several entries; their conditions need not be identical. Equal values may be shown once. Where a name gives a salt, the structure may show the parent alone.

target: DNMT1 (Homo sapiens, UniProt P26358); assay: DNMT1 biochemical activity, breaklight assay and/or SPA assay; conditions: DNMT1 BioChemical (pIC50 category), binned activity in either the breaklight or the SPA assay
Method: DNMT1 breaklight in vitro assays were conducted in a total volume of 50 μl in a standard 384 well format, using black non-binding surface microplates (Corning 3575). […] Negative control wells used 5 μl of DNMT1 and 5 μl of oligonucleotide but 0 μM SAM. All reagents were made up in 1× assay buffer (20 mM Tris pH 6.8, 25 mM NaCl, 0.5 mM MgCl2, 0.01% Triton X100 and 1 mM DTT). The reaction was incubated at 26° C. for 45 min and then stopped with the addition of 40 μl detection reagent. Detection reagent, made up in 1× Gla assay buffer (20 mM Tris pH 8.0, 80 mM NaCl, 0.75 mM MgCl2, 0.01% Triton X100 and 1 mM DTT) has a final concentration of 100 μM SAH (Sigma #A9384) and 0.0008 units/μl Gla1 restriction endonuclease (Sibenzyme #E494). Following addition of the detection reagent the plate was incubated in the dark at room temperature for 5 hr. Fluorescence intensity was then measured on the PHERAstar FS (BMG Labtech) at Ex 485 nm and Em 520 nm, with a gain of 400 and an integration time of 100 ms.
Biochemical activity of DNMT1 analyzed using SPA technology. Plates (Griener 784075) were pre-stamped with 100 nL/well of compound (11-point, 3-fold serial dilution). […] Low control wells contained 5 μL of buffer instead of enzyme. Following a 40 minute incubation, the reaction was quenched upon the addition of 10 μL of stop mixture containing 1 mM SAM (Sigma A7007) and 2 mg/mL PEI beads (Perkin Elmer RPNQ0098). Plates were sealed, centrifuged for 1 min and then read on a Viewlux (Perkin Elmer) using the 613 nm emission filter/300 s read time following a 30 minute dark adapt. Assay conditions prior to quench consisted of 40 nM DNMT1 (601-1600, produced internally), 100 nM 3H-SAM (American Radiolabeled Chemicals ART 0288), 900 nM SAM (New England BioLabs B9003S) and 200 nM hemi methylated DNA oligonucleotide (synthesized at Integrated DNA Technologies, 5′-[…]-3′) in 50 mM HEPES (pH 8.0), 2 mM MgCl2, 1 mM DTT, 0.01% NP-40 and 0.01% BSA.
Comments • 1. […] Where a field is empty, the compound was not tested in that assay.

DNMT1, sequence (P26358 whole entry, looked up): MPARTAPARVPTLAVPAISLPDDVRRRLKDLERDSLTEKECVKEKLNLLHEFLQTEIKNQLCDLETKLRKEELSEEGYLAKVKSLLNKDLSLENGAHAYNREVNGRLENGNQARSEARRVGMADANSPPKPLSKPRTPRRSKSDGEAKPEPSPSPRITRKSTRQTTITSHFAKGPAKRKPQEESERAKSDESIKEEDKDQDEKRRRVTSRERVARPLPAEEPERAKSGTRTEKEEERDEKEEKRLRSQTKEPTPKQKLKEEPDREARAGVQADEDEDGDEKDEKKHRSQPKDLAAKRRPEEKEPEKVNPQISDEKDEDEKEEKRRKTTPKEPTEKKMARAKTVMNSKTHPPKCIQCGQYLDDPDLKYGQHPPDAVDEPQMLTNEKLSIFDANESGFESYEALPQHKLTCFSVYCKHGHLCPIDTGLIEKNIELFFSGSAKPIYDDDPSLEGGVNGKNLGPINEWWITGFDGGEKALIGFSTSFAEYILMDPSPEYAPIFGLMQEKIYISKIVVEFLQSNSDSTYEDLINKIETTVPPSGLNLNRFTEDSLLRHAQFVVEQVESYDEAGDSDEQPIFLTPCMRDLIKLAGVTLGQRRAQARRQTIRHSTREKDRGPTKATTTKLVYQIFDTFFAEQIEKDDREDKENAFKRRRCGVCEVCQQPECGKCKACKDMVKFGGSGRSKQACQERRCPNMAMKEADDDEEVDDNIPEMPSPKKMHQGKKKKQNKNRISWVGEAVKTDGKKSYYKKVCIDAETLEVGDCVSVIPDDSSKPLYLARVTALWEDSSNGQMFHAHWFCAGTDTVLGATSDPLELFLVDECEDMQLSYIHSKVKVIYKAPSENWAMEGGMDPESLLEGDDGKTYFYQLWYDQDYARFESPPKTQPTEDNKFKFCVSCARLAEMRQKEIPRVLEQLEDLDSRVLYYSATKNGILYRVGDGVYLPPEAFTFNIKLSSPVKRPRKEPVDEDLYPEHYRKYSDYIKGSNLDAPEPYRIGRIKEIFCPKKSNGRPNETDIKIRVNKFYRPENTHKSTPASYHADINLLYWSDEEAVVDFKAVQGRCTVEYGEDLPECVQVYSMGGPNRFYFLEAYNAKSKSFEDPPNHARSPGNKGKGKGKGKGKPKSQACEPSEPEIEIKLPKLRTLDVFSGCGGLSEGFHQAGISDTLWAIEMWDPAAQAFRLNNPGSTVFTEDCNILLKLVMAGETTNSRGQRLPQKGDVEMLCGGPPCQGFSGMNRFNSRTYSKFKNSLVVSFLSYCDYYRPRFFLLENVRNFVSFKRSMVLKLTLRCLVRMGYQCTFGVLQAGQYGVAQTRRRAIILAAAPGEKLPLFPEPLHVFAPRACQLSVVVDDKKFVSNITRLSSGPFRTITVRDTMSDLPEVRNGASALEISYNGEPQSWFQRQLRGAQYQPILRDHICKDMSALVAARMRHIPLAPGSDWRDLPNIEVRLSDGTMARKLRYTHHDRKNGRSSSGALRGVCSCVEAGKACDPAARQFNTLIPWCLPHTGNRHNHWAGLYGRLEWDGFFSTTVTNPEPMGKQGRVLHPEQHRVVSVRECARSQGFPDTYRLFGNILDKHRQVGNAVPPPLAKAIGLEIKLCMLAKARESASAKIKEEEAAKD

Question: With CCc1c(C#N)c(S[C@@H](C(N)=O)c2ccccc2)nc(N2CC[C@@H](N)[C@@H](O)C2)c1C#N [Example 514, (R)-2-((6-((3S,4R)-4-amino-3-hydroxypiperidin-1-yl)-3,5-dicyano-4-ethylpyridin-2-yl)thio)-2-phenylacetamide, Trifluoroacetic acid salt] as the compound, how does the IC50 read?
Answer: Its IC50 is under 316 nM.

same assay, conditions: binned activity in either the breaklight or the SPA assay

Question: With CCc1c(C#N)c(SC(C(N)=O)c2ccccc2)nc(N2CCCN(CC(O)CO)CC2)c1C#N (stereo not shown) [Example 678, 2-((3,5-dicyano-6-(4-(2,3-dihydroxypropyl)-1,4-diazepan-1-yl)-4-ethylpyridin-2-yl)thio)-2-phenylacetamide] as the compound, how does the “DNMT1 BioChemical (pIC50 category)” value read?
Answer: Its value is “D (Category D: ≥6.5)”.

Question: For CCc1c(C#N)c(SCc2ccc(N(C)S(C)(=O)=O)cc2)nc(N2CC[C@@H](CNC(=O)CN)C2)c1C#N [Example 672, (S)-2-amino-N-((1-(3,5-dicyano-4-ethyl-6-((4-(N-methylmethylsulfonamido)benzyl)thio)pyridin-2-yl)pyrrolidin-3-yl)methyl)acetamide], which “DNMT1 BioChemical (pIC50 category)” value is on record?
Answer: Its value is “D (Category D: ≥6.5)”.

Question: How did the “DNMT1 BioChemical (pIC50 category)” value turn out when CCc1c(C#N)c(SC(C(N)=O)c2ccccc2)nc(N2CCC(NCCOC)CC2)c1C#N (stereo not shown) [Example 553, 2-((3,5-dicyano-4-ethyl-6-(4-((2-methoxyethyl)amino)piperidin-1-yl)pyridin-2-yl)thio)-2-phenylacetamide] was run?
Answer: The value was “D (Category D: ≥6.5)”.

Question: For CCc1c(C#N)c(SC(C(N)=O)c2ccc(F)cc2)nc(N2CCC(N(C)C3CCC3)CC2)c1C#N (stereo not shown) [Example 432, 2-((3,5-Dicyano-6-(4-(cyclobutyl(methyl)amino)piperidin-1-yl)-4-ethylpyridin-2-yl)thio)-2-(4-fluorophenyl)acetamide], which “DNMT1 BioChemical (pIC50 category)” value is on record?
Answer: Its value is “D (Category D: ≥6.5)”.

Question: How did the “DNMT1 BioChemical (pIC50 category)” value turn out when CCc1c(C#N)c(S[C@@H](C(N)=O)c2ccccc2)nc(N(C)[C@@H]2CCOC2)c1C#N [Example 501, (R)-2-(3,5-dicyano-4-ethyl-6-(methyl((R)-tetrahydrofuran-3-yl)amino)pyridin-2-ylthio)-2-phenylacetamide] was run?
Answer: Its value is “D (Category D: ≥6.5)”.

Question: With CCc1c(C#N)c(SC(C(N)=O)c2ccccc2)nc(N2CCC(C3CCN(CCO)CC3)CC2)c1C#N (stereo not shown) [Example 60, 2-((3,5-dicyano-4-ethyl-6-(1′-(2-hydroxyethyl)-[4,4′-bipiperidin]-1-yl)pyridin-2-yl)thio)-2-phenylacetamide] as the compound, how does the “DNMT1 BioChemical (pIC50 category)” value read?
Answer: The value was “D (Category D: ≥6.5)”.

Question: With CCc1c(C#N)c(SC(C(N)=O)c2ccccc2)nc(N2CCC(NCC3(C)CC3)CC2)c1C#N (stereo not shown) [Example 473, 2-((3,5-dicyano-4-ethyl-6-(4-(((1-methylcyclopropyl)methyl)amino)piperidin-1-yl)pyridin-2-yl)thio)-2-phenylacetamide] as the compound, how does the “DNMT1 BioChemical (pIC50 category)” value read?
Answer: The value was “D (Category D: ≥6.5)”.

Question: For COc1c(C#N)c(SC(C(N)=O)c2ccccc2)nc(N2CC[C@H](O)C2)c1C#N (stereo partly drawn) [Example 696, 2-((3,5-dicyano-6-((S)-3-hydroxypyrrolidin-1-yl)-4-methoxypyridin-2-yl)thio)-2-phenylacetamide], which “DNMT1 BioChemical (pIC50 category)” value is on record?
Answer: Its value is “D (Category D: ≥6.5)”.

Question: With CCc1c(C#N)c(S[C@H](C(N)=O)c2ccccc2)nc(N(C)[C@@H]2CCOC2)c1C#N [Example 502, (S)-2-(3,5-dicyano-4-ethyl-6-(methyl((R)-tetrahydrofuran-3-yl)amino)pyridin-2-ylthio)-2-phenylacetamide] as the compound, how does the “DNMT1 BioChemical (pIC50 category)” value read?
Answer: The value was “D (Category D: ≥6.5)”.

same assay, conditions: binned activity in either the breaklight or the SPA assay; read-out: DNMT1 BioChemical (pIC50 category) (converted)

Question: For CCc1c(C#N)c(SC(C(N)=O)c2ccccc2)nc(N2CCN(C(=O)c3ccccc3)CC2)c1C#N (stereo not shown) [Example 131, 2-((6-(4-Benzoylpiperazin-1-yl)-3,5-dicyano-4-ethylpyridin-2-yl)thio)-2-phenylacetamide], which IC50 is on record?
Answer: The IC50 was 316 to 1000 nM.

Question: For N#Cc1c(SC(C(N)=O)c2ccccc2)nc(N2CCCN(CCO)CC2)c(C#N)c1CC(F)(F)F (stereo not shown) [Example 113, 2-({3,5-Dicyano-6-[4-(2-hydroxyethyl)-1,4-diazepan-1-yl]-4-(2,2,2-trifluoroethyl)pyridin-2-yl}sulfanyl)-2-phenylacetamide], which IC50 is on record?
Answer: The IC50 was 316 to 1000 nM.

Question: How did the IC50 turn out when CCc1c(C#N)c(SC(C(N)=O)c2ccccc2)nc(N2CCN(CCN3CCCC3)CC2)c1C#N (stereo not shown) [Example 304, 2-((3,5-Dicyano-4-ethyl-6-(4-(2-(pyrrolidin-1-yl)ethyl)piperazin-1-yl)pyridin-2-yl)thio)-2-phenylacetamide] was run?
Answer: The IC50 was 316 to 1000 nM.

Question: CCc1c(C#N)c(S[C@@H](C(N)=O)c2ccccc2)nc(N(C)CCOP(=O)(O)O)c1C#N [Example 421, (R)-2-((6-((2-amino-2-oxo-1-phenylethyl)thio)-3,5-dicyano-4-ethylpyridin-2-yl(methyl)amino)ethyldihydroden phosphate] was tested. Which IC50 did it give?
Answer: Its IC50 is 1000 to 31600 nM.

Question: CCc1c(C#N)c(S[C@H](C(N)=O)c2ccccc2)nc(N2CCC(C)(N)CC2)c1C#N (single isomer, unassigned) [Example 617, 2-((6-(4-amino-4-methylpiperidin-1-yl)-3,5-dicyano-4-ethylpyridin-2-yl)thio)-2-phenylacetamide] was tested. Which IC50 did it give?
Answer: The IC50 was 1000 to 31600 nM.

Question: With CCc1c(C#N)c(SC(C(N)=O)c2ccccc2)nc(N2CC[C@@]3(CCCN3S(C)(=O)=O)[C@@H](O)C2)c1C#N (stereo partly drawn) [Example 132, 2-((3,5-Dicyano-4-ethyl-6-((5S,6S)-6-hydroxy-1-(methylsulfonyl)-1,8-diazaspiro[4.5]decan-8-yl)pyridin-2-yl)thio)-2-phenylacetamide] as the compound, how does the IC50 read?
Answer: The IC50 was 316 to 1000 nM.

same assay, conditions: breaklight assay and/or SPA assay, repeated experimental runs; read-out: average pIC50 against DNMT1 (converted)

Question: CCc1c(C#N)c(SC(C(N)=O)c2ccccc2)nc(N2CCN(C(=O)c3ccccc3)CC2)c1C#N (stereo not shown) [Example 131, 2-((6-(4-Benzoylpiperazin-1-yl)-3,5-dicyano-4-ethylpyridin-2-yl)thio)-2-phenylacetamide] was tested. Which IC50 did it give?
Answer: The IC50 was 316 to 1000 nM.

Question: With CCc1c(C#N)c(S[C@H](C(N)=O)c2ccccc2)nc(N2CCC(C)(N)CC2)c1C#N (single isomer, unassigned) [Example 617, 2-((6-(4-amino-4-methylpiperidin-1-yl)-3,5-dicyano-4-ethylpyridin-2-yl)thio)-2-phenylacetamide] as the compound, how does the IC50 read?
Answer: Its IC50 is ≥ 1000 nM and 2510 nM.

Question: Which IC50 does the source give for CCc1c(C#N)c(SC(C(N)=O)c2ccccc2)nc(N2CC[C@@]3(CCCN3S(C)(=O)=O)[C@@H](O)C2)c1C#N (stereo partly drawn) [Example 132, 2-((3,5-Dicyano-4-ethyl-6-((5S,6S)-6-hydroxy-1-(methylsulfonyl)-1,8-diazaspiro[4.5]decan-8-yl)pyridin-2-yl)thio)-2-phenylacetamide] here?
Answer: Its IC50 is 316 to 1000 nM.
